Measurements: patent US20250235456A1, “METHODS OF USE FOR AZA-QUINAZOLINE COMPOUNDS” (Iambic Therapeutics, Inc., priority 2024, published 2025)
pIC50: −log10 of the molar value.

Tests used:
Type in all cases: biochemical
CDK4/Cyclin D1 [1] = target: T1, CDK4/Cyclin D1 (Homo sapiens (Human), UniProt P11802); experiment: CDK4/Cyclin D1 Mobility Shift Assay (MSA); settings: read-out: CDK4/CyclinD1 MSA IC50
Description: CDK4/Cyclin D1 Mobility Shift Assay (MSA) The purpose CDK4/Cyclin D1 assay is to evaluate the inhibition (% inhibition and IC50 values) in the presence of small molecule inhibitors by using a fluorescence based microfluidic mobility shift assay. CDK4/Cyclin D1 catalyzes the production of ADP from ATP that accompanies the phosphoryl transfer to the substrate peptide 5-FAM-Dyrktide (5-FAM-[…]) (Perkin Elmer Peptide 34). The mobility shift assay (MSA) electrophoretically separates the fluorescently labelled peptides (substrate and phosphorylated product) following the kinase reaction. Both substrate and product are measured, and the ratio of these values is used to generate % conversion of substrate to product by the LabChip EZ Reader. Typical reaction solutions contained 2% DMSO (+/−inhibitor), 10 mM MgCl2, 1 mM EGTA, 0.05% BSA, 2 mM DTT, 0.2 mM ATP, 0.01% Brig-35, 1.5 uM 5-FAM-Dyrktide, 2.5 nM CDK4/Cyclin D1 in 50 mM HEPES buffer at pH 7.5. The reaction was initiated with the addition of substrate solution, following a 30-minute pre-incubation of enzyme and inhibitor at 22° C. in the reaction mix. The reaction was stopped after 180 minutes by the addition of 75 μL of 500 mM EDTA and measured on a Perkin Elmer EZ reader instrument. IC50 determinations were made from a plot of the fractional velocity as a function of inhibitor concentration fit to the 4 parameters IC50 equation.

CDK6/Cyclin D3 = CDK6/Cyclin D3 (Homo sapiens (Human), UniProt Q00534); experiment: CDK6/Cyclin D3 ADP-Glo Kinase Assay; settings: read-out: CDK6/CyclinD3 IC50
In short: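 Commercial CDK6/Cyclin D3 pre-incubated with inhibitor 30 min at room temperature, then reaction started with ATP/substrate and run 90 min at room temperature. ADP formed measured by ADP-Glo luminescence; IC50 from fractional velocity vs inhibitor concentration fit to a 4-parameter equation.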

CDK1/Cyclin B1 = CDK1/Cyclin B1 (Homo sapiens (Human), UniProt P06493); experiment: CDK1/Cyclin B1 ADP-Glo Kinase Assay
In short: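 Purchased CDK1/Cyclin B1 was pre-incubated 30 min with inhibitor at room temperature, then reacted 90 min at room temperature after adding ATP-containing substrate. ADP formed was read by two-step ADP-Glo luminescence. IC50 came from a 4-parameter fit of fractional velocity versus inhibitor concentration.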

[2] = target: CDK2/Cyclin E1 full length (Homo sapiens (Human), UniProt P24941); experiment: CDK2/Cyclin E1 Full length ADP-Glo Kinase Assay; settings: read-out: CDK2/CyclinE1 IC50
Procedure: CDK2/Cyclin E1 Full length ADP-Glo Kinase Assay
The purpose of CDK2/Cyclin El assay is to evaluate the inhibition (% inhibition and IC50 values) of small molecule inhibitors by using a Luminescent based ADP-Glo assay. CDK2/Cyclin El full length catalyzes the production of ADP from ATP. ADP-Glo assay monitors ADP producing biochemical reactions. ADP-Glo is performed in 2 steps upon completion of kinase reaction: a combined termination of kinase reaction and depletion of remaining ATP in the first step, and conversion of generated ADP to ATP and the newly produced ATP to light output using luciferase/luciferin reaction in the second step. The luminescent signal generated is proportional to the ADP concentration produced and is correlated with the kinase activity. CDK2/Cyclin E1 was purchased from Eurofins (Cat 14-475M). […] The assay was initiated with the addition of ATP-containing substrate solution, following a 30-minute pre-incubation of enzyme and inhibitor at room temperature in the reaction mixture. The reaction was stopped after 90 minutes at room temperature by the addition of 10 μL of ADP-GLO Reagent. After a 90 minute incubation, 20 uL of Kinase Detection Reagent was added. Samples were incubated for 40 minutes, after which plate well luminescence was measured on a Envision microplate reader. The IC50 determinations were made from a plot of the fractional velocity as a function of inhibitor concentration fit to the 4 parameters IC50 equation.

CDK4/Cyclin D1 [3] = target: T1, CDK4/Cyclin D1; experiment: CDK4/Cyclin D1 CHEF Assay; settings: AQT; read-out: CDK4/CyclinD1 AQT IC50
In short: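 Peptide substrate AQT0258 carries a Sox fluorophore whose Mg(II)-dependent fluorescence (ex 360/em 485 nm) rises on phosphorylation. Enzyme and inhibitor pre-incubated 30 min at 22 °C, substrate added, reaction run 3 h at 22 °C. IC50 from 4-parameter fit of fractional velocity vs inhibitor concentration.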

Chain of CDK1/Cyclin B1 (P06493 whole entry): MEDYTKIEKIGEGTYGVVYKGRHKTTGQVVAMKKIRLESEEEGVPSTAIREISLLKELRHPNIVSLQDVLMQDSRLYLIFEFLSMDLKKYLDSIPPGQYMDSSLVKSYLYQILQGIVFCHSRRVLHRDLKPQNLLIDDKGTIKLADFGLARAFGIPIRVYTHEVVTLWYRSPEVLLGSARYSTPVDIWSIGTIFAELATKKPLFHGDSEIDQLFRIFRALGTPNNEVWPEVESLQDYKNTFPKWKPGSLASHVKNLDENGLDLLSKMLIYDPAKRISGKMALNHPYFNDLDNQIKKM
Chain of CDK1/Cyclin B1 (P14635 whole entry partner): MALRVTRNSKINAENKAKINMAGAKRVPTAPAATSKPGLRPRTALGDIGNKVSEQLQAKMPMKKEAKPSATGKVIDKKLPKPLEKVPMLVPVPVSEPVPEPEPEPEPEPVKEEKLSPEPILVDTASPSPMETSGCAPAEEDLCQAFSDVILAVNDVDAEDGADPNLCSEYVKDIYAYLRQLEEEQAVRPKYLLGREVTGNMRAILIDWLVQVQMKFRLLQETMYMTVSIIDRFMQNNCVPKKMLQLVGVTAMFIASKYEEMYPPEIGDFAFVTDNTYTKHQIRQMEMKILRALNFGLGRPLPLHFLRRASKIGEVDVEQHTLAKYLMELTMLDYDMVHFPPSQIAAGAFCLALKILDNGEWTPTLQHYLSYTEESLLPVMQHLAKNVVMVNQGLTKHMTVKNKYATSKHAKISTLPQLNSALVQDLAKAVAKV
Chain of CDK6/Cyclin D3 (Q00534 whole entry): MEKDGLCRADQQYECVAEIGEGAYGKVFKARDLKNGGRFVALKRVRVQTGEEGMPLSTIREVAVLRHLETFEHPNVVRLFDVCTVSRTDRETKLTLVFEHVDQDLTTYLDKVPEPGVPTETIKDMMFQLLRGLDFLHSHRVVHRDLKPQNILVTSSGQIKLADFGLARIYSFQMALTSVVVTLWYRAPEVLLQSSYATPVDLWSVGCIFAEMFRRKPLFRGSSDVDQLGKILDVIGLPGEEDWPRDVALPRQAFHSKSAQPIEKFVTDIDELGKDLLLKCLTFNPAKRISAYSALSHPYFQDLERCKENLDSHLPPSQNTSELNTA
Chain of CDK6/Cyclin D3 (P30281 whole entry partner): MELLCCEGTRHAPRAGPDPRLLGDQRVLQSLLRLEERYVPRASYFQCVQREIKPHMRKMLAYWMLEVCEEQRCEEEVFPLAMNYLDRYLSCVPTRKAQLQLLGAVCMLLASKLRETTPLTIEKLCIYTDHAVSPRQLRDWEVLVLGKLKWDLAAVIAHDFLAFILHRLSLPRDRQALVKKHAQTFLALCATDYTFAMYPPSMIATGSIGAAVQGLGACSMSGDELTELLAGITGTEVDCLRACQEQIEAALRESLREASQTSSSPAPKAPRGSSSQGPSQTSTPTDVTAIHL
T1 sequence (P11802 whole entry, species assumed): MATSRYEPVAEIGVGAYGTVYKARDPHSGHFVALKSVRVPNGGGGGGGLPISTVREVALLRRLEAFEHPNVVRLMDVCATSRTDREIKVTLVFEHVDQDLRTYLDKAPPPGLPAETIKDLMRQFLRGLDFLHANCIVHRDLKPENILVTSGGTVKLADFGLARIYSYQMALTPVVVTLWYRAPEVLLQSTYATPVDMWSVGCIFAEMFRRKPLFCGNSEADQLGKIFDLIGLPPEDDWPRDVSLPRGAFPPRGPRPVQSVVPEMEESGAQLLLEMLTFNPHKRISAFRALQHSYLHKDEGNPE
T1 sequence (P24385 whole entry partner, species assumed): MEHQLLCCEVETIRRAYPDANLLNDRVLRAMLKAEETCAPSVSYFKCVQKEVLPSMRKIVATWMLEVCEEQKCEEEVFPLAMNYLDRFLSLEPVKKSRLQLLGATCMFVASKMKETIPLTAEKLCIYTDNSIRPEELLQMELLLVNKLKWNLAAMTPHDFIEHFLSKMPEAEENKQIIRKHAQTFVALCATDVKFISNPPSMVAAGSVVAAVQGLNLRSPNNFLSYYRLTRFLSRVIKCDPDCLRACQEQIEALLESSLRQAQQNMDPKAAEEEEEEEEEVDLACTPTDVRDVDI

| SMILES | pIC50 (CDK4/Cyclin D1 [1]) | pIC50 (CDK6/Cyclin D3) | pIC50 (CDK1/Cyclin B1) | pIC50 [2] | pIC50 (CDK4/Cyclin D1 [3]) |
| --- | --- | --- | --- | --- | --- |
| Cc1cc2cnc(NC3CCN(S(=O)(=O)C4(C)CC4)CC3)nc2c(C2CC(C)(O)C2)n1 (stereo not drawn) [Compound 63, 1-methyl-3-(6-methyl-2-((1-((1-methylcyclopropyl)sulfonyl)piperidin-4-yl)amino)pyrido[3,4-d]pyrimidin-8-yl)cyclobutan-1-ol] | – | < 5.70 | < 5.70 | 6.30 to 6.70 | – |
| Cc1cc2cnc(Nc3ccc(N4CC5(CN(C)C5)C4)cc3)nc2c(N2CC3(C2)CS(=O)(=O)C3)n1 [Compound 30, 6-(6-methyl-2-((4-(6-methyl-2,6-diazaspiro[3.3]heptan-2-yl)phenyl)amino)pyrido[3,4-d]pyrimidin-8-yl)-2-thia-6-azaspiro[3.3]heptane 2,2-dioxide] | – | 6.30 to 6.70 | < 5.70 | 6.30 to 6.70 | 6.30 to 6.70 |
| Cc1cc2cnc(Nc3cnn(C4CC5(C4)CN(C)C5)c3)nc2c(N2CCC3(C2)CC3(F)F)n1 (stereo not drawn) [Compound 33, 8-(1,1-difluoro-5-azaspiro[2.4]heptan-5-yl)-6-methyl-N-(1-(2-methyl-2-azaspiro[3.3]heptan-6-yl)-1H-pyrazol-4-yl)pyrido[3,4-d]pyrimidin-2-amine] | – | > 6.70 | – | 6.30 to 6.70 | > 6.70 |
| CN1CCC(n2cc(Nc3ncc4ccnc(N5CCC6(C5)CC6(F)F)c4n3)cn2)CC1 (stereo not drawn) [Compound 20, 8-(1,1-difluoro-5-azaspiro[2.4]heptan-5-yl)-N-(1-(1-methylpiperidin-4-yl)-1H-pyrazol-4-yl)pyrido[3,4-d]pyrimidin-2-amine] | > 6.70 | > 6.70 | – | – | – |
| Cc1cc2cnc(Nc3ccc4c(c3)CN(C3CN(S(C)(=O)=O)C3)C4)nc2c(N2CC3(CN(C)C3)C2)n1 [Compound 29, 6-methyl-8-(6-methyl-2,6-diazaspiro[3.3]heptan-2-yl)-N-(2-(1-(methylsulfonyl)azetidin-3-yl)isoindolin-5-yl)pyrido[3,4-d]pyrimidin-2-amine] | – | – | < 5.70 | 6.30 to 6.70 | > 6.70 |
| Cc1cc2cnc(Nc3ccc(N4CC5(CN(C)C5)C4)cc3)nc2c(N2CCC3(CCOCC3)C2)n1 [Compound 35, 6-methyl-N-(4-(6-methyl-2,6-diazaspiro[3.3]heptan-2-yl)phenyl)-8-(8-oxa-2-azaspiro[4.5]decan-2-yl)pyrido[3,4-d]pyrimidin-2-amine] | – | > 6.70 | < 5.70 | 6.30 to 6.70 | > 6.70 |
| Cc1cc2cnc(Nc3cc4c(cc3F)CN(S(C)(=O)=O)C4)nc2c(N2CC3(CNC3)C2)n1 [Compound 37, N-(6-fluoro-2-(methylsulfonyl)isoindolin-5-yl)-6-methyl-8-(2,6-diazaspiro[3.3]heptan-2-yl) pyrido[3,4-d]pyrimidin-2-amine] | – | < 5.70 | < 5.70 | 6.30 to 6.70 | < 5.70 |
| Cc1cc2cnc(NC3CCN(S(C)(=O)=O)CC3)nc2c(N2CC3(C2)CN(C2CC2)C3)n1 [Compound 42, 8-(6-cyclopropyl-2,6-diazaspiro[3.3]heptan-2-yl)-6-methyl-N-(1-(methylsulfonyl)piperidin-4-yl)pyrido[3,4-d]pyrimidin-2-amine] | – | 5.70 to 6.30 | < 5.70 | > 6.70 | > 6.70 |
| Cc1cc2cnc(Nc3cnn(C4CC5(C4)CN(C)C5)c3)nc2c(N2CC3(C2)CN(S(C)(=O)=O)C3)n1 [Compound 26, 6-methyl-N-(1-(2-methyl-2-azaspiro[3.3]heptan-6-yl)-1H-pyrazol-4-yl)-8-(6-(methylsulfonyl)-2,6-diazaspiro[3.3]heptan-2-yl) pyrido[3,4-d]pyrimidin-2-amine] | – | – | < 5.70 | 6.30 to 6.70 | 6.30 to 6.70 |
| CS(=O)(=O)N1CCC(Nc2ncc3ccnc(N4CCN(C5CC5)CC4)c3n2)CC1 [Compound 1, 8-(4-cyclopropylpiperazin-1-yl)-N-(1-(methylsulfonyl)piperidin-4-yl)pyrido[3,4-d]pyrimidin-2-amine] | > 6.70 | 6.30 to 6.70 | – | – | – |

Now from value to compound:

| pIC50 (CDK4/Cyclin D1 [1]) | pIC50 (CDK6/Cyclin D3) | pIC50 (CDK1/Cyclin B1) | pIC50 [2] | pIC50 (CDK4/Cyclin D1 [3]) | SMILES |
| --- | --- | --- | --- | --- | --- |
| > 6.70 | > 6.70 | > 6.70 | – | – | CS(=O)(=O)N1CCC(Nc2ncc3ccnc(N4CCC(C#N)(C5CC5)C4)c3n2)CC1 (stereo not drawn) [Compound 5, 3-cyclopropyl-1-(2-((1-(methylsulfonyl)piperidin-4-yl)amino)pyrido[3,4-d]pyrimidin-8-yl)pyrrolidine-3-carbonitrile] |
| > 6.70 | > 6.70 | 6.30 to 6.70 | – | – | CS(=O)(=O)N1CC(Nc2ncc3ccnc(N4CCC5(C4)CC5(F)F)c3n2)C1 (stereo not drawn) [Compound 14, 8-(1,1-difluoro-5-azaspiro[2.4]heptan-5-yl)-N-(1-(methylsulfonyl)azetidin-3-yl) pyrido[3,4-d]pyrimidin-2-amine] |
| > 6.70 | > 6.70 | 6.30 to 6.70 | – | – | CN1CCN(c2ccc(Nc3ncc4ccnc(N5CCC6(C5)CC(F)(F)C6)c4n3)cc2)CC1 [Compound 4, 8-(2,2-difluoro-6-azaspiro[3.4]octan-6-yl)-N-(4-(4-methylpiperazin-1-yl)phenyl)pyrido [3,4-d]pyrimidin-2-amine] |
| – | > 6.70 | 5.70 to 6.30 | > 6.70 | > 6.70 | Cc1cc2cnc(NC3CCN(S(C)(=O)=O)CC3)nc2c(N2CC3(CN(C)C[C@@H]3F)C2)n1 [Compound 103, (R)-8-(8-fluoro-6-methyl-2,6-diazaspiro[3.4]octan-2-yl)-6-methyl-N-(1-(methylsulfonyl)piperidin-4-yl)pyrido[3,4-d]pyrimidin-2-amine] |
| > 6.70 | > 6.70 | > 6.70 | – | – | CS(=O)(=O)N1CCC(Nc2ncc3ccnc(N4CCC5(C4)CC(F)(F)C5)c3n2)CC1 [Example 2, 8-(2,2-difluoro-6-azaspiro[3.4]octan-6-yl)-N-(1-(methylsulfonyl)piperidin-4-yl)pyrido[3,4-d]pyrimidin-2-amine] |
| > 6.70 | – | 6.30 to 6.70 | – | – | CN1CCN(c2ccc(Nc3ncc4ccnc(N5CCC6(CCN(S(C)(=O)=O)C6)C5)c4n3)cc2)CC1 (stereo not drawn) [Compound 9, N-(4-(4-methylpiperazin-1-yl)phenyl)-8-(7-(methylsulfonyl)-2,7-diazaspiro[4.4]nonan-2-yl) pyrido[3,4-d]pyrimidin-2-amine] |
| – | > 6.70 | > 6.70 | > 6.70 | > 6.70 | O=S(=O)(C1CC1)N1CCC(Nc2ncc3cc(C(F)F)nc(N4CC5(CCNC5)C4)c3n2)CC1 [Compound 46, 1-(cyclopropanesulfonyl)-N-(8-{2,6-diazaspiro[3.4]octan-2-yl}-6-(difluoromethyl)pyrido[3,4-d]pyrimidin-2-yl)piperidin-4-amine] |
| > 6.70 | – | 6.30 to 6.70 | – | – | CS(=O)(=O)N1CCC(Nc2ncc3ccnc(N4CC5(C4)CN(C4CC4)C5)c3n2)CC1 [Compound 8, 8-(6-cyclopropyl-2,6-diazaspiro[3.3]heptan-2-yl)-N-(1-(methylsulfonyl)piperidin-4-yl)pyrido[3,4-d]pyrimidin-2-amine] |
| – | 6.30 to 6.70 | 5.70 to 6.30 | > 6.70 | > 6.70 | Cc1cc2cnc(NC3CCN(S(C)(=O)=O)CC3)nc2c(N2CC3(CN(C)C[C@H]3F)C2)n1 [Compound 104, (S)-8-(8-fluoro-6-methyl-2,6-diazaspiro[3.4]octan-2-yl)-6-methyl-N-(1-(methylsulfonyl)piperidin-4-yl)pyrido[3,4-d]pyrimidin-2-amine] |
